Measurements: patent US20230085307A1, “PYRIDAZINONE COMPOUND AND HERBICIDE” (NISSAN CHEMICAL CORPORATION, priority 2019, published 2023)

Experiments:
blackgrass [1] = experiment: Test Example 5: herbicidal effect by foliage application, plastic box (Table 20, symbol J); type: in vivo, blackgrass (Alopecurus myosuroides); settings: foliage application, AAH 246 g/ha, three weeks after application
Procedure, shortened: (§1)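 Plants were sown into sterilized diluvial soil under about 1.5 cm cover and kept in a greenhouse at 25° C. to 30° C. Fourteen days on, foliage received an even spray of the diluted emulsion. Herbicidal or crop effect was judged three weeks afterwards.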

barnyard grass [2] = experiment: Test Example 5: herbicidal effect by foliage application, plastic box (Table 20, symbol H); type: in vivo, barnyard grass (Echinochloa crus-galli); settings: foliage application, AAH 246 g/ha, three weeks after application
Procedure, shortened: as §1

Italian ryegrass [3] = experiment: Test Example 4: herbicidal effect by soil treatment (Table 19, symbol K); type: in vivo, Italian ryegrass (Lolium multiflorum); settings: AAH 246 g/ha
Procedure, shortened: (§2)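 Pre-emergence style soil spray: seeds under ~1.5 cm sterilized diluvial soil received a uniform coat of emulsion diluted to the predetermined herbicide amount. Greenhouse 25–30° C; readout at week three on previously defined criteria.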

persian speedwell [4] = experiment: Test Example 5: herbicidal effect by foliage application, plastic box (Table 20, symbol R); type: in vivo, Persian speedwell (Veronica persica); settings: foliage application, AAH 246 g/ha, three weeks after application
Procedure, shortened: as §1

velvetleaf [5] = experiment: Test Example 4: herbicidal effect by soil treatment (Table 19, symbol M); type: in vivo, velvetleaf (Abutilon theophrasti); settings: AAH 246 g/ha
Procedure, shortened: as §2

persian speedwell [6] = experiment: Test Example 4: herbicidal effect by soil treatment (Table 19, symbol R); type: in vivo, Persian speedwell (Veronica persica); settings: AAH 246 g/ha
Procedure, shortened: as §2

redroot pigweed [7] = experiment: Test Example 4: herbicidal effect by soil treatment (Table 19, symbol N); type: in vivo, redroot pigweed (Amaranthus retroflexus); settings: AAH 246 g/ha
Procedure, shortened: as §2

lambsquarters [8] = experiment: Test Example 5: herbicidal effect by foliage application, plastic box (Table 20, symbol O); type: in vivo, lambsquarters (Chenopodium album); settings: foliage application, AAH 246 g/ha, three weeks after application
Procedure, shortened: as §1

green foxtail [9] = experiment: Test Example 5: herbicidal effect by foliage application, plastic box (Table 20, symbol G); type: in vivo, green foxtail (Setaria viridis); settings: foliage application, AAH 246 g/ha, three weeks after application
Procedure, shortened: as §1

southern crabgrass [10] = experiment: Test Example 5: herbicidal effect by foliage application, plastic box (Table 20, symbol F); type: in vivo, southern crabgrass (Digitaria ciliaris); settings: foliage application, AAH 246 g/ha, three weeks after application
Procedure, shortened: as §1

redroot pigweed [11] = experiment: Test Example 5: herbicidal effect by foliage application, plastic box (Table 20, symbol N); type: in vivo, redroot pigweed (Amaranthus retroflexus); settings: foliage application, AAH 246 g/ha, three weeks after application
Procedure, shortened: as §1

lambsquarters [12] = experiment: Test Example 4: herbicidal effect by soil treatment (Table 19, symbol O); type: in vivo, lambsquarters (Chenopodium album); settings: AAH 246 g/ha
Procedure, shortened: as §2

green foxtail [13] = experiment: Test Example 4: herbicidal effect by soil treatment (Table 19, symbol G); type: in vivo, green foxtail (Setaria viridis); settings: AAH 246 g/ha
Procedure, shortened: as §2

barnyard grass [14] = experiment: Test Example 3: herbicidal effect by foliage application, Wagner pot (Table 18, symbol H); type: in vivo, barnyard grass (Echinochloa crus-galli); settings: 246 g/ha
Procedure, shortened: (§3)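 Plants were sown in alluvial soil held under 0.1–0.5 cm standing water and grown 14 days in a greenhouse at 25–30 °C. An emulsifiable formulation, water-diluted to the set dose, was then sprayed onto the foliage, and effects were scored three weeks later using previously defined criteria.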

southern crabgrass [15] = experiment: Test Example 4: herbicidal effect by soil treatment (Table 19, symbol F); type: in vivo, southern crabgrass (Digitaria ciliaris); settings: AAH 246 g/ha
Procedure, shortened: as §2

rice flat sedge = experiment: Test Example 3: herbicidal effect by foliage application, Wagner pot (Table 18, symbol E); type: in vivo, rice flat sedge (Cyperus iria); settings: 246 g/ha
Procedure, shortened: as §3

windgrass [16] = experiment: Test Example 4: herbicidal effect by soil treatment (Table 19, symbol L); type: in vivo, windgrass (Apera spica-venti); settings: AAH 246 g/ha
Procedure, shortened: as §2

Japanese bulrush = experiment: Test Example 1: herbicidal activity, application before weed generation under submerged conditions (Table 16, symbol B); type: in vivo, Japanese bulrush (Schoenoplectus juncoides); settings: 246 g/ha applied herbicide
Procedure, shortened: (§4)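 Submerged Wagner pots (alluvial soil, 4 cm water) sown with weed seeds and planted with 2.5-leaf rice seedlings; emulsifiable concentrate diluted in water applied to water surface on sowing day. Held in greenhouse at 25-30 °C; injury scored 0-5 by herbicidal rate after three weeks.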

blackgrass [17] = experiment: Test Example 4: herbicidal effect by soil treatment (Table 19, symbol J); type: in vivo, blackgrass (Alopecurus myosuroides); settings: AAH 246 g/ha
Procedure, shortened: as §2

late watergrass = experiment: Test Example 1: herbicidal activity, application before weed generation under submerged conditions (Table 16, symbol A); type: in vivo, late watergrass (Echinochloa oryzicola); settings: 246 g/ha applied herbicide
Procedure, shortened: as §4

oval-leafed pondweed = experiment: Test Example 1: herbicidal activity, application before weed generation under submerged conditions (Table 16, symbol C); type: in vivo, oval-leafed pondweed (Monochoria vaginalis); settings: 246 g/ha applied herbicide
Procedure, shortened: as §4

barnyard grass [18] = experiment: Test Example 4: herbicidal effect by soil treatment (Table 19, symbol H); type: in vivo, barnyard grass (Echinochloa crus-galli); settings: AAH 246 g/ha
Procedure, shortened: as §2

windgrass [19] = experiment: Test Example 5: herbicidal effect by foliage application, plastic box (Table 20, symbol L); type: in vivo, windgrass (Apera spica-venti); settings: foliage application, AAH 246 g/ha, three weeks after application
Procedure, shortened: as §1

wild oat [20] = experiment: Test Example 5: herbicidal effect by foliage application, plastic box (Table 20, symbol I); type: in vivo, wild oat (Avena fatua); settings: foliage application, AAH 246 g/ha, three weeks after application
Procedure, shortened: as §1

chickweed [21] = experiment: Test Example 5: herbicidal effect by foliage application, plastic box (Table 20, symbol P); type: in vivo, common chickweed (Stellaria media); settings: foliage application, AAH 246 g/ha, three weeks after application
Procedure, shortened: as §1

Italian ryegrass [22] = experiment: Test Example 5: herbicidal effect by foliage application, plastic box (Table 20, symbol K); type: in vivo, Italian ryegrass (Lolium multiflorum); settings: foliage application, AAH 246 g/ha, three weeks after application
Procedure, shortened: as §1

Chinese sprangletop = experiment: Test Example 3: herbicidal effect by foliage application, Wagner pot (Table 18, symbol D); type: in vivo, chinese sprangletop (Leptochloa chinensis); settings: 246 g/ha
Procedure, shortened: as §3

wild oat [23] = experiment: Test Example 4: herbicidal effect by soil treatment (Table 19, symbol I); type: in vivo, wild oat (Avena fatua); settings: AAH 246 g/ha
Procedure, shortened: as §2

chickweed [24] = experiment: Test Example 4: herbicidal effect by soil treatment (Table 19, symbol P); type: in vivo, common chickweed (Stellaria media); settings: AAH 246 g/ha
Procedure, shortened: as §2

velvetleaf [25] = experiment: Test Example 5: herbicidal effect by foliage application, plastic box (Table 20, symbol M); type: in vivo, velvetleaf (Abutilon theophrasti); settings: foliage application, AAH 246 g/ha, three weeks after application
Procedure, shortened: as §1

Question: How did the “J: blackgrass, herbicidal effect” value (blackgrass [1]) turn out when `C=Cc1ccc(-c2sc3ccccc3c2-c2c(OC(=O)CCC)c(C)nn(C)c2=O)cc1` [1-128] was run?
Answer: 3 (Herbicidal rate of 40% or more and less than 70%)

Question: And the “H: barnyard grass, herbicidal effect” value (barnyard grass [2])?
Answer: 1 (Herbicidal rate of 5% or more and less than 20%)

Question: What about the “K: Italian ryegrass, herbicidal effect rating” value (Italian ryegrass [3]) of the same molecule?
Answer: 2 (Herbicidal rate of 20% or more and less than 40%)

Question: And the “R: persian speedwell, herbicidal effect” value (persian speedwell [4])?
Answer: 5 (Herbicidal rate of 90% or more (almost completely withered))

Question: And the “M: velvetleaf, herbicidal effect rating” value (velvetleaf [5])?
Answer: 0 (Herbicidal rate of 5% or less (almost no effect))

Question: And the “R: persian speedwell, herbicidal effect rating” value (persian speedwell [6])?
Answer: 3 (Herbicidal rate of 40% or more and less than 70%)

Question: What about the “N: redroot pigweed, herbicidal effect rating” value (redroot pigweed [7]) of the same molecule?
Answer: 4 (Herbicidal rate of 70% or more and less than 90%)

Question: And the “O: lambsquarters, herbicidal effect” value (lambsquarters [8])?
Answer: 4 (Herbicidal rate of 70% or more and less than 90%)

Question: And the “G: green foxtail, herbicidal effect” value (green foxtail [9])?
Answer: 0 (Herbicidal rate of 5% or less (almost no effect))

Question: And the “F: southern crabgrass, herbicidal effect” value (southern crabgrass [10])?
Answer: 0 (Herbicidal rate of 5% or less (almost no effect))

Question: What about the “N: redroot pigweed, herbicidal effect” value (redroot pigweed [11]) of the same molecule?
Answer: 5 (Herbicidal rate of 90% or more (almost completely withered))

Question: And the “O: lambsquarters, herbicidal effect rating” value (lambsquarters [12])?
Answer: 0 (Herbicidal rate of 5% or less (almost no effect))

Question: What about the “G: green foxtail, herbicidal effect rating” value (green foxtail [13]) of the same molecule?
Answer: 0 (Herbicidal rate of 5% or less (almost no effect))

Question: And the “herbicidal effect on H (barnyard grass), rating 0-5” value (barnyard grass [14])?
Answer: 4 (Herbicidal rate of 70% or more and less than 90%)

Question: What about the “F: southern crabgrass, herbicidal effect rating” value (southern crabgrass [15]) of the same molecule?
Answer: 0 (Herbicidal rate of 5% or less (almost no effect))

Question: And the “herbicidal effect on E (rice flat sedge), rating 0-5” value (rice flat sedge)?
Answer: 3 (Herbicidal rate of 40% or more and less than 70%)

Question: And the “L: windgrass, herbicidal effect rating” value (windgrass [16])?
Answer: 0 (Herbicidal rate of 5% or less (almost no effect))

Question: What about the “Herbicidal effect on B: Japanese bulrush (grade 0-5)” value (Japanese bulrush) of the same molecule?
Answer: 5 (Herbicidal rate of 90% or more (almost completely withered))

Question: What about the “J: blackgrass, herbicidal effect rating” value (blackgrass [17]) of the same molecule?
Answer: 0 (Herbicidal rate of 5% or less (almost no effect))

Question: And the “Herbicidal effect on A: late watergrass (grade 0-5)” value (late watergrass)?
Answer: 0 (Herbicidal rate of 5% or less (almost no effect))

Question: And the “Herbicidal effect on C: oval-leafed pondweed (grade 0-5)” value (oval-leafed pondweed)?
Answer: 5 (Herbicidal rate of 90% or more (almost completely withered))

Question: What about the “H: barnyard grass, herbicidal effect rating” value (barnyard grass [18]) of the same molecule?
Answer: 0 (Herbicidal rate of 5% or less (almost no effect))

Question: And the “L: windgrass, herbicidal effect” value (windgrass [19])?
Answer: 4 (Herbicidal rate of 70% or more and less than 90%)

Question: And the “I: wild oat, herbicidal effect” value (wild oat [20])?
Answer: 1 (Herbicidal rate of 5% or more and less than 20%)

Question: And the “P: chickweed, herbicidal effect” value (chickweed [21])?
Answer: 5 (Herbicidal rate of 90% or more (almost completely withered))

Question: What about the “K: Italian ryegrass, herbicidal effect” value (Italian ryegrass [22]) of the same molecule?
Answer: 4 (Herbicidal rate of 70% or more and less than 90%)

Question: What about the “herbicidal effect on D (Chinese sprangletop), rating 0-5” value (Chinese sprangletop) of the same molecule?
Answer: 5 (Herbicidal rate of 90% or more (almost completely withered))

Question: And the “I: wild oat, herbicidal effect rating” value (wild oat [23])?
Answer: 0 (Herbicidal rate of 5% or less (almost no effect))

Question: What about the “P: chickweed, herbicidal effect rating” value (chickweed [24]) of the same molecule?
Answer: 3 (Herbicidal rate of 40% or more and less than 70%)

Question: And the “M: velvetleaf, herbicidal effect” value (velvetleaf [25])?
Answer: 4 (Herbicidal rate of 70% or more and less than 90%)
